Test results: US10201556B2, “Combination for use in treating diseases or conditions associated with melanoma, or treating diseases or conditions associated with activated B-raf pathway” (InteRNA Technologies B.V., priority 2012, dated 2019)

Experiments:
[1] = test system: ERK1; assay: Western blotting of ERK1 protein levels; type: cell-based, human
Description: Transfection was performed as described in Example 4 in 6-well format. Proteins were isolated using RIPA buffer (50 mM Tris pH 8.0, 150 mM NaCL, 1% NP-40, 0.5% Sodium deoxycholate, 0.1% SDS), supplemented with Protease Inhibitor Cocktail (Sigma) and Halt™ Phosphatase Inhibitor Cocktail (Pierce/Thermo Scientific). Fifteen μg protein was loaded on a 12% Mini-PROTEAN® TGX™ Precast Gel (Bio-Rad), and proteins were transferred to Immun-Blot PVDF Membrane (Bio-Rad). Membranes were blocked in 5% milk or 5% BSA in TBS-T, and incubated O/N at 4° C. with primary antibodies against α-tubulin (1:5000), BRAF, pERK1/2, CDK4, RRM2 (all 1:1000), BCL-2 (1:500) (Santa Cruz), total-ERK1/2 (1:2000), BIRC5, AURKB (1:1000) (Cell Signaling), ERK1 (1:2000) (GeneTex). After incubation with appropriate secondary antibodies and western blot chemiluminescence substrate ECL (Pierce/Thermo Scientific), membranes were exposed to CL-XPosure Film (Pierce/Thermo Scientific).

[2] = test system: A375-R, M249-AR4 and M376; assay: MTS cell viability after miR-3157 mimic transfection, acquired resistance lines; type: cell-based; conditions: 10 nM mimic, 72 hours (FIG. 11c)
Description: (§1) miR-3157 broadly affects melanoma cell line viability. Melanoma cell lines were divided into those that have the BRAFV600E mutation and are sensitive (a), intrinsically resistant (b) or acquired resistance to vemurafenib (c). Cell lines were transfected in triplicate with control miRNA or miR-3157 mimics (10 nM; n=2). Mock is transfectant only. Cell viability was determined using the MTS assay and calculated relative to mock transfected cells.
(§2) A375 cells were obtained from the Hubrecht Institute (Utrecht, The Netherlands); SKMEL-28, A2058 and RPMI-7951 were from the ATCC; SKMEL-57 was a gift from Dr. Patricia Groenen (Radboud University Nijmegen Medical Centre, The Netherlands); for cell line characteristics of M249, M249-AR4, M233 and M376 see (Atefi et al. 2011). A375-R, with in vitro acquired resistance to vemurafenib, was established in our lab by clonal selection of cells continually exposed to 1 μM vemurafenib. A375, A375-R, SKMEL-28, A2058 and SKMEL-57 were grown in DMEM GlutaMAX™-I (Gibco®), all other cell lines in RPMI-1640 (Gibco®). Media was supplemented with 10% FBS (Sigma), and cells were maintained in a humidified 37° C. incubator (Thermo Scientific) with 5% CO2. […]
(§3) Cells were seeded in 96-well plates and transfected the next day. […] Read-out was performed at 490 nm on a Multiskan FC plate reader (Thermo Scientific) at 72 hours post transfection.

[3] = test system: BRAFV600E mutant melanoma cell lines SKMEL-28, SKMEL-57 and M249; assay: MTS cell viability after miR-3157 mimic transfection, vemurafenib-sensitive lines; type: cell-based; conditions: SKMEL-28, SKMEL-57, M249; 10 nM mimic, 72 hours (FIG. 11a)
Description: as §1, §2, §3

[4] = test system: M249 melanoma cell line; assay: Anti-proliferative effect of miRNA mimics, MTS assay; type: cell-based; conditions: 5 nM mimic, 72 hours after transfection
Description: (§4) The anti-proliferative effect of miRNA's in melanoma cell lines was determined with mature miRNA mimics from Ambion. For each cell line optimal growth and transfection conditions were determined prior to the experiment. Cells were plated in a 96-well plate at 3000 cells per well (100 uL) and were grown at 37 C, 5% CO2. Transfection mix (20 uL per well) was made for each miRNA mimic concentration with 0.3 uL (M249, M249-R4) or 0.5 uL (A375Hu, A375Hu-R1, A2058, RPMI-7951) X-TremeGene (Roche) per well (according to manufacturer's instructions) in Optimem (Invitrogen). Cells were transfected 24 hours after plating in triplicate. Medium was replaced 48 hours after transfection with fresh medium.

[5] = test system: M249-AR (M249-R4) melanoma cell line; assay: as above; type: cell-based; conditions: 30 nM mimic, 72 hours after transfection
Description: as §4

[6] = test system: RPMI-7951 melanoma cell line; assay: as above; type: cell-based; conditions: 10 nM mimic, 72 hours after transfection
Description: as §4

[7] = test system: A2058 melanoma cell line; assay: as above; type: cell-based; conditions: 10 nM mimic, 72 hours after transfection
Description: as §4

[8] = test system: M249-R4 melanoma cell line; assay: Anti-proliferative effect of small molecules, MTS assay; type: cell-based; conditions: M249-R4 (M249-AR4), in vitro acquired resistance, 72 hours
Description: (§5) The anti-proliferative effect of small molecules in melanoma cell lines was determined with V600E BRAF inhibitor, vemurafenib (PLX-4032, 51267, Selleck) and MEK inhibitor, selumetinib (AZD-6244, S1008, Selleck). For each cell line optimal growth conditions were determined prior to the experiment. Cells were plated in a 96-well plate at 3000 cells per well (100 uL) and were grown at 37 C, 5% CO2. Small molecule mix (50 uL per well) was made for each concentration in medium. Cells were treated in triplicate 24 hours after plating. After 72 hours medium was replaced and viability was measured with the MTS assay (Promega) according to manufacturer's instructions. Cell viability inhibition is normalized against loading control (0.1% DMSO) and GraphPad Prism was used to fit the curve and calculate GI50 values.

[9] = test system: M249 melanoma cell line; assay: as above; type: cell-based; conditions: M249, 72 h, M249, vemurafenib sensitive
Description: as §5

[10] = test system: A375Hu melanoma cell line; assay: as above; type: cell-based; conditions: Homo sapiens, A-375, 72 h, A375Hu (A375), vemurafenib sensitive
Description: as §5

[11] = test system: RPMI-7951 melanoma cell line; assay: as above; type: cell-based; conditions: Homo sapiens
Description: as §5

[12] = test system: A2058 melanoma cell line; assay: as above; type: cell-based; conditions: Homo sapiens, A2058, intrinsic resistance, 72 hours
Description: as §5

“hsa-miR-3157-5p: mature miRNA mimic, SEQ ID NO 6 UUCAGCCAGGCUAGUGCAGUCU (listed as RNA, chemistry not given here)” was tested, and the ERK1 protein levels ([1]; A375 cells, increasing concentrations of mimic (FIG. 12c)) was “most pronounced”, the ERK1 protein levels ([1]; A2058, M249, M249-AR4 and M376, increasing concentrations of mimic (FIG. 14a)) was “not very strongly affected” and the “cell viability relative to mock transfected cells” value [2] was “reduced viability”. For the same molecule, the “cell viability relative to mock transfected cells” value [3] was “strongly reduced cell viability”, the “M249 % Viability 5 nM” value [4] was 42% and the “M249-AR % Viability 30 nM” value [5] was 53%. The “RPMI-7951 % Viability 10 nM” value [6] was 26% and the “A2058 % Viability 10 nM” value [7] was 43%.
For `CCCS(=O)(=O)Nc1ccc(F)c(C(=O)c2c[nH]c3ncc(-c4ccc(Cl)cc4)cc23)c1F` [Vemurafenib, N-(3-{[5-(4-chlorophenyl)-1H-pyrrolo[2,3-b]pyridin-3-yl]carbonyl}-2,4-difluorophenyl)propane-1-sulfonamide], the GI50 [8] was > 10000 nM, the GI50 [9] was ~300 nM and the GI50 [10] was ~100 nM. For the same molecule, the cytotoxicity at 3 µM ([11]; RPMI-7951, 3 μM vemurafenib (FIG. 15a), read-out: reduction of cell viability) was ~20%, the GI50 ([11]; RPMI-7951, intrinsic resistance, 72 hours, MTS) was > 10000 nM and the GI50 [12] was > 10000 nM.
